Assay results published in patent US12234227B2, “Pyrazole derivatives as H4 antagonist compounds” (NXERA PHARMA UK LIMITED, priority 2018, dated 2025).
Counter-ions that a name gives are not always drawn. Like-named read-outs stand apart in the source and are kept apart here.

Assays:
hERG [1] = target: T1, hERG (Homo sapiens, UniProt Q12809); experiment: hERG Assay (QPatch automated patch clamp; single-concentration assay at 30 μM and pIC50 assay)
human H4 receptor [2] = target: T2, human H4 receptor (Homo sapiens, UniProt Q9H3N8); experiment: H4 Antagonist Functional Dynamic Mass Redistribution Assay; format: cell-based; settings: H4 antagonist activity; for Kb: read-out: Human H4 DMR fpKb (converted)
T2 construct: expressed in transfected cells; host or cells: HEKf cells transduced with baculovirus
Description: H4 Antagonist Functional Dynamic Mass Redistribution Assay
HEKf cells were infected using baculovirus expressing the human H4 receptor, plated into fibronectin-coated EPIC plates at a density of 10,000 cells/well and incubated overnight at 37° C. The medium on cells was changed to 30 μL HBSS with 20 mM HEPES per well and 30 nL DMSO were added per well by LabCyte ECHO acoustic dispensing. Following 2 h equilibration at room temperature, 30 nL of H4 ligands prepared in DMSO were stamped by LabCyte ECHO acoustic dispensing into seeded EPIC plates and cellular dynamic mass redistribution was monitored using a Corning EPIC plate reader. Following 45 min measurement, 30 nL/well of histamine EC80 was added and monitored to obtain antagonist assay data. Maximum baseline-corrected responses in […] were used to generate concentration response curves. EC50 values were generated using a 4-parameter logistical fit equation to quantify agonist potencies. Functional antagonist affinity values were generated using the Cheng-Prusoff equation to calculate a pKb value using the antagonist assay data.

human H4 receptor [3] = target: T2, human H4 receptor; experiment: H4 Antagonist Functional cAMP Gi Assay; format: cell-based; settings: H4 antagonist activity; for Kb: read-out: Human H4 CAMP fpKb (converted)
Description: H4 Antagonist Functional cAMP Gi Assay
HEKf cells were infected overnight using baculovirus expressing the human H4 receptor, then centrifuged at 1,200 rpm for 5 min, frozen in cell freezing medium (Sigma) and stored at −150° C. On the day of assay, the cells were thawed and resuspended in HBSS with 500 nM IBMX to achieve a density of 1,500 cells/well. H4 ligands were prepared in DMSO and stamped by LabCyte ECHO acoustic dispensing at 25 nL in low volume plates. 10 μL/well cells were plated in the presence of 1 μM forskolin, subjected to centrifugation at 1,200 rpm for 1 min and incubated for 30 min prior to addition of Cisbio cAMP detection reagents to a total volume 20 μL/well. For the antagonist assay, cells were pre-incubated with H4 antagonist ligands for 30 min prior to addition of EC80 concentration of histamine and a further 30 min incubation. Following detection reagent addition and shaking at room temperature for 60 min, cAMP accumulation was measured using HTRF on a PheraStar plate reader. EC50 values were generated using a 4-parameter logistical fit equation to quantify agonist potencies. Functional antagonist affinity values were generated using the Cheng-Prusoff equation to calculate a pKb value using the antagonist assay data.

hERG [4] = target: T1, hERG; experiment: in vitro
[5] = human, CHO cells stably expressing hERG

T1 sequence (Q12809 whole entry): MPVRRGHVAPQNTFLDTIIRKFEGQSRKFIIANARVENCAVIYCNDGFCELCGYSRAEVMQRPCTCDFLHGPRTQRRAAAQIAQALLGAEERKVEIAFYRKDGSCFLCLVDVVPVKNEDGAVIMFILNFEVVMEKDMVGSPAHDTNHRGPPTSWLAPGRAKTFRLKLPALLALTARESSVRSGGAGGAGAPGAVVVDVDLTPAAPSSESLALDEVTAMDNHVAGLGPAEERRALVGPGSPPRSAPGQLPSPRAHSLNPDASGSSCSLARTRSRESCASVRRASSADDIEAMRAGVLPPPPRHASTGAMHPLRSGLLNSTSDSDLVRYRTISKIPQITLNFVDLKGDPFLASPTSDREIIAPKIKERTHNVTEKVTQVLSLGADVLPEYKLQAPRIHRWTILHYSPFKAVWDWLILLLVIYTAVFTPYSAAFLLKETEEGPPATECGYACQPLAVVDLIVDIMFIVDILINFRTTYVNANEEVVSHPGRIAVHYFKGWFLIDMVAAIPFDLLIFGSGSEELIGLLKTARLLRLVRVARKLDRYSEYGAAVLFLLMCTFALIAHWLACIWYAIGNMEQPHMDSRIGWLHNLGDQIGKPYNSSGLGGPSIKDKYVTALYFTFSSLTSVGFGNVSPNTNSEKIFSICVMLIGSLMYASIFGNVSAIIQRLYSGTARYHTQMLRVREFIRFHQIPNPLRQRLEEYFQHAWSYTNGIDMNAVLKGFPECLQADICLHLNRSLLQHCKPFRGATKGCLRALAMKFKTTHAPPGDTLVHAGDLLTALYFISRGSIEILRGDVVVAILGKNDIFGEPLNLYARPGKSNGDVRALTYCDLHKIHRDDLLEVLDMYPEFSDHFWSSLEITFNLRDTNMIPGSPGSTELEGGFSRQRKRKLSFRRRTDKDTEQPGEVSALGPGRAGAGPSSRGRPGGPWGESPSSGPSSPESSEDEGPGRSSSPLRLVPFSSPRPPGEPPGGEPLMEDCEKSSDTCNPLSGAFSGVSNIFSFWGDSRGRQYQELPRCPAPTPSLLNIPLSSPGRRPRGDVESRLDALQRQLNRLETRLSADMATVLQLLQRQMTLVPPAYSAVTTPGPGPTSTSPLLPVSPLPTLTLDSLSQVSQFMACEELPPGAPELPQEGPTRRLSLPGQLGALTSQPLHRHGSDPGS

| Structure (SMILES) | Kb (human H4 receptor [2]) [µM] | Kb (human H4 receptor [3]) [µM] | inhibition at 30 µM (hERG [1]; [5]) [%] | also measured |
| --- | --- | --- | --- | --- |
| Cc1cn[nH]c1-c1cc(N2CC[C@@H](N)C2)nc(N)n1 [Example 4-5] | 0.00251 | 0.01 | 18 | – |
| CN[C@@H]1CCN(c2cc(-c3cnn(C4CC4)c3)nc(N)n2)C1 [Example 8-4] | 0.02 | 0.0501 | 54 | – |
| CN[C@@H]1CCN(c2cc(-c3cnn(C(F)(F)F)c3)nc(N)n2)C1 [Example 8-7, dihydrochloride] | 0.00398 | 0.00316 | 49 | IC50 (hERG [1]; [5]): 31.6 µM |
| CN[C@@H]1CCN(c2cc(-c3cnn(CCOC)c3)nc(N)n2)C1 [Example 8-10] | 0.126 | 0.126 | – | IC50 (hERG [1]): ≥ 100 µM |
| CNC1CN(c2cc(-c3cnn(C(F)(F)F)c3)nc(N)n2)C1 [Example 8-16, ditrifluoroacetate] | 0.00158 | 0.000794 | 33 | IC50 (hERG [1]): > 100 µM |
| CN[C@@H]1CCN(c2cc(-c3cn[nH]c3C(F)(F)F)nc(N)n2)C1 [Example 9-6] | 0.00251 | 0.00631 | 18 | – |
| Cc1[nH]ncc1-c1cc(N2CC[C@@H](N)C2)nc(N)n1 [Example 9-7] | 0.01 | 0.0158 | 12 | – |
| Cc1n[nH]c(-c2cc(N3C[C@H]4CCCN[C@H]4C3)nc(N)n2)c1Cl [Example 17-7, dihydrochloride] | 0.0316 | – | – | inhibition at 30 µM (hERG [4]): 38% |
| CC(C)c1cc(N2CC[C@@H](N)C2)nc(N)n1 [JNJ-39758979] | – | – | – | hERG pIC50 (hERG [1]; QPatch, 1, 3, 10 and 30 μM): ≤4.0; Human H4 DMR fpKb (human H4 receptor [2]): 8.5; Human H4 CAMP fpKb (human H4 receptor [3]): 8.1 |

More lines, main results first:

| Kb (human H4 receptor [2]) [µM] | Kb (human H4 receptor [3]) [µM] | Structure (SMILES) | inhibition at 30 µM (hERG [1]; [5]) [%] | also measured |
| --- | --- | --- | --- | --- |
| 0.02 | 0.00631 | CN[C@@H]1CCN(c2cc(-c3[nH]nc(C)c3C)nc(N)n2)C1 [Example 7-1, (R)-4-(3,4-dimethyl-1H-pyrazol-5-yl)-6-(3-(methylamino)pyrrolidin-1-yl)pyrimidin-2-amine dihydrochloride] | 14 | – |
| 0.00126 | 0.0316 | CN[C@@H]1CCN(c2cc(-c3cnn(C)c3)nc(N)n2)C1 [Example 8-2] | 13 | – |
| 0.00398 | 0.00794 | CN[C@@H]1CCN(c2cc(-c3cn[nH]c3C)nc(N)n2)C1 [Example 9-1] | – | IC50 (hERG [1]): ≥ 100 µM |
| 0.0158 | 0.0158 | CN[C@@H]1CCN(c2cc(-c3cn[nH]c3C(C)C)nc(N)n2)C1 [Example 9-3] | 24 | – |
| 0.0398 | 0.0501 | CN[C@@H]1CCN(c2cc(-c3c(C)n[nH]c3C)nc(N)n2)C1 [Example 10-1] | 21 | – |
| 0.00251 | 0.0126 | CN[C@@H]1CCN(c2cc(-c3cn(C)nc3C)nc(N)n2)C1 [Example 11-1, (R)-4-(1,3-dimethyl-1H-pyrazol-4-yl)-6-(3-(methylamino)pyrrolidin-1-yl)pyrimidin-2-amine] | 2 | IC50 (hERG [1]): ≥ 100 µM |
| 0.0794 | 0.0794 | CCc1nn(C)cc1-c1cc(N2CC[C@@H](NC)C2)nc(N)n1 [Example 11-2, dihydrochloride] | 20 | – |
| 0.00398 | 0.00631 | CN[C@@H]1CCN(c2cc(-c3cn(C(F)F)nc3C)nc(N)n2)C1 [Example 11-6] | 90 | – |
| 0.00251 | 0.00794 | CN[C@@H]1CCN(c2cc(-c3cnn(C)c3C)nc(N)n2)C1 [Example 12-1] | – | IC50 (hERG [1]): ≥ 100 µM |
| 0.00631 | 0.0158 | CN[C@@H]1CCN(c2cc(-c3cnn(C(F)F)c3C)nc(N)n2)C1 [Example 12-3] | 47 | – |
| 0.00501 | 0.02 | CN[C@@H]1CCN(c2cc(-c3c(C)nn(C)c3C)nc(N)n2)C1 [Example 13-1] | 7 | – |
| 0.000126 | 0.000398 | CN[C@@H]1CCN(c2cc(-c3[nH]ncc3Br)nc(N)n2)C1 [Example 16-12] | 45 | – |
